Measurements as given in patent US5116845A (priority 1990, dated 1992).

What was measured:
Gram-negative organisms = format: cell-based
P388 leukemia = test: Antitumor activity against P388 leukemia (ip); format: in vivo, mice; conditions: maximum over the doses
[1] = tested on: Gram-positive aerobic bacteria; format: cell-based
Solubility = format: physicochemical
Moser and HCT-116 cells = conditions: versus murine B16-F10
mice = test: Acute toxicity, intramuscular; format: in vivo; conditions: 5 mg/kg intramuscular
P388/VCR = test: In vitro cytotoxicity (viable cell count)
[2] = tested on: murine and human tumor cell lines; test: In vitro cytotoxicity

Row | Structure (SMILES) | susceptibility of Gram-negative organisms (Gram-negative organisms) | maximum T/C (P388 leukemia) | activity against Gram-positive aerobic bacteria [1] | solubility in organic solvents (Solubility; chloroform, methanol and ethanol, compared with BU-3420T) | resistance of Moser and HCT-116 relative to B16-F10 (Moser and HCT-116 cells) | toxicity (mice) | cytotoxicity against VCR-resistant versus sensitive P388 cells (P388/VCR) | cytotoxicity [2] | solubility (Solubility; chloroform) | solubility (Solubility; dimethyl sulfoxide) | solubility (Solubility; dimethylformamide) | solubility (Solubility; dioxane) | solubility (Solubility; ethanol) | solubility (Solubility; ethyl acetate) | solubility (Solubility; methanol) | solubility (Solubility; n-hexane) | solubility (Solubility; water)
1 | COC1=C(C(=O)O)C(C)C23OC24c2cc(OC(C)=O)c5c(c2NC3C#C/C=C\C#CC14)C(=O)c1c(OC(C)=O)ccc(OC(C)=O)c1C5=O (centres unmarked) [BU-3420T acetate] | a little less susceptible | 135% | intensely potent activity | much improved solubility | – | – | – | – | – | – | – | – | – | – | – | – | –
2 | CO[C@@]12[C@H](COC(N)=O)C3=C(C(=O)C(C)=C(N)C3=O)N1C[C@@H]1N[C@@H]12 [Mitomycin C] | – | – | – | – | slightly more resistant | – | – | – | – | – | – | – | – | – | – | – | –
3 | COC1=C(C(=O)O)C(C)C23OC24c2cc(O)c5c(c2NC3C#CC=CC#CC14)C(=O)c1c(O)ccc(O)c1C5=O (centres unmarked) [BU-3420T] | a little less susceptible | 135% | intensely potent activity | – | – | did not show any toxicity | same cytotoxicities | potent cytotoxicity | slightly soluble | soluble | soluble | soluble | slightly soluble | slightly soluble | slightly soluble | insoluble | insoluble
